Reference: ChEMBL document CHEMBL4715821, “Discovery of 4-ethoxy-7H-pyrrolo[2,3-d]pyrimidin-2-amines as potent, selective and orally bioavailable LRRK2 inhibitors” (Bioorg Med Chem Lett, 2018)

Columns and labels:
[1] = biological target: Tyrosine-protein kinase ITK/TSK (Homo sapiens) (UniProt Q08881); assay: Inhibition of wild-type human partial length ITK (R335 to L620 residues) expressed in bacterial expression system assessed as residual activity at 1 uM by Kinomescan method relative to control
[2] = biological target: Cytoplasmic tyrosine-protein kinase BMX (Homo sapiens) (UniProt P51813); assay: Inhibition of wild-type human full length BMX (M1 to H675 residues) expressed in bacterial expression system assessed as residual activity at 1 uM by Kinomescan method relative to control
[3] = biological target: Inhibitor of nuclear factor kappa-B kinase subunit beta (Homo sapiens) (UniProt O14920); assay: Inhibition of wild-type human full length IKK-beta (M1 to S756 residues) expressed in mammalian expression system assessed as residual activity at 1 uM by Kinomescan method relative to control
[4] = biological target: Serine/threonine-protein kinase Nek11 (Homo sapiens) (UniProt Q8NG66); assay: Inhibition of wild-type human partial length NEK11 (M1 to E313 residues) expressed in mammalian expression system assessed as residual activity at 1 uM by Kinomescan method relative to control
[5] = biological target: Serine/threonine-protein kinase D1 (Homo sapiens) (UniProt Q15139); assay: Inhibition of wild-type human partial length PRKD1 (G551 to E870 residues) expressed in bacterial expression system assessed as residual activity at 1 uM by Kinomescan method relative to control
[6] = biological target: Casein kinase I isoform gamma-1 (Homo sapiens) (UniProt Q9HCP0); assay: Inhibition of CK1g1 (unknown origin) assessed as residual activity at 1 uM by Kinomescan method relative to control
[7] = biological target: 3-phosphoinositide-dependent protein kinase 1 (Homo sapiens) (UniProt O15530); assay: Inhibition of PDK1 (unknown origin) assessed as residual activity at 1 uM by Kinomescan method relative to control
[8] = biological target: Receptor tyrosine-protein kinase erbB-4 (Homo sapiens) (UniProt Q15303); assay: Inhibition of wild-type human partial length ERBB4 (L690 to K994 residues) expressed in bacterial expression system assessed as residual activity at 1 uM by Kinomescan method relative to control
[9] = biological target: Serine/threonine-protein kinase Nek7 (Homo sapiens) (UniProt Q8TDX7); assay: Inhibition of wild-type human full length NEK7 (M1 to S302 residues) expressed in bacterial expression system assessed as residual activity at 1 uM by Kinomescan method relative to control
[10] = biological target: SRSF protein kinase 3 (Homo sapiens) (UniProt Q9UPE1); assay: Inhibition of MSSK1 (unknown origin) assessed as residual activity at 1 uM by Kinomescan method relative to control
[11] = biological target: Dual specificity protein kinase CLK3 (Homo sapiens) (UniProt P49761); assay: Inhibition of wild-type human full length CLK3 (M1 to R490 residues) expressed in bacterial expression system assessed as residual activity at 1 uM by Kinomescan method relative to control
[12] = biological target: Fibroblast growth factor receptor 2 (Homo sapiens) (UniProt P21802); assay: Inhibition of wild type human partial length FGFR2 (D457 to E769 residues) expressed in bacterial expression system assessed as residual activity at 1 uM by Kinomescan method relative to control
[13] = biological target: Glycogen synthase kinase-3 beta (Homo sapiens) (UniProt P49841); assay: Inhibition of wild-type human full length GSK3B (M1 to T433 residues) expressed in mammalian expression system assessed as residual activity at 1 uM by Kinomescan method relative to control
[14] = biological target: Receptor-type tyrosine-protein kinase FLT3 (Homo sapiens) (UniProt P36888); assay: Inhibition of wild-type human partial length FLT3 (V592 to Y969 residues) expressed in bacterial expression system assessed as residual activity at 1 uM by Kinomescan method relative to control
[15] = biological target: Activin receptor type-1B (Homo sapiens) (UniProt P36896); assay: Inhibition of wild-type human ACVR1B (S187 to I505 residues) expressed in bacterial expression system assessed as residual activity at 1 uM by Kinomescan method relative to control
[16] = biological target: Serine/threonine-protein kinase Nek6 (Homo sapiens) (UniProt Q9HC98); assay: Inhibition of wild-type human full length NEK6 (M8 to T313 residues) expressed in bacterial expression system assessed as residual activity at 1 uM by Kinomescan method relative to control
[17] = biological target: Protein kinase C alpha type (Homo sapiens) (UniProt P17252); assay: Inhibition of PKCalpha (unknown origin) assessed as residual activity at 1 uM by Kinomescan method relative to control
[18] = biological target: Rhodopsin kinase GRK7 (Homo sapiens) (UniProt Q8WTQ7); assay: Inhibition of wild-type human full length GRK7 (M1 to L553 residues) expressed in mammalian expression system assessed as residual activity at 1 uM by Kinomescan method relative to control
[19] = biological target: Receptor-interacting serine/threonine-protein kinase 2 (Homo sapiens) (UniProt O43353); assay: Inhibition of wild-type human partial length RIPK2 (M1 to K310 residues) expressed in bacterial expression system assessed as residual activity at 1 uM by Kinomescan method relative to control
[20] = biological target: Calcium/calmodulin-dependent protein kinase type II subunit beta (Homo sapiens) (UniProt Q13554); assay: Inhibition of wild-type human partial length CAMK2B (M1 to Q380 residues) expressed in bacterial expression system assessed as residual activity at 1 uM by Kinomescan method relative to control
[21] = biological target: Rhodopsin kinase GRK1 (Homo sapiens) (UniProt Q15835); assay: Inhibition of wild-type human full length GRK1 (M1 to S563 residues) expressed in mammalian expression system assessed as residual activity at 1 uM by Kinomescan method relative to control
[22] = biological target: Testis-specific serine/threonine-protein kinase 3 (Homo sapiens) (UniProt Q96PN8); assay: Inhibition of wild-type human full length TSSK3 (M1 to T268 residues) expressed in mammalian expression system assessed as residual activity at 1 uM by Kinomescan method relative to control
[23] = In vivo inhibition of LRRK2 in Han-Wistar rat assessed as reduction in Ser935 phosphorylation in lung at 10 to 100 mg/kg, po by Western blot analysis; assay type: functional; parameters: scale not given: the % may be the effect or the level left; conditions: dose 10-100 mg/kg
[24] = biological target: Cyclin-dependent kinase 4/cyclin D1 (Homo sapiens) (UniProt P11802+P24385); assay: Inhibition of wild-type human full length CDK4/cyclinD1 (M1 to E303 residues) expressed in mammalian expression system assessed as residual activity at 1 uM by Kinomescan method relative to control
[25] = biological target: Mitogen-activated protein kinase kinase kinase 20 (Homo sapiens) (UniProt Q9NYL2); assay: Inhibition of wild-type human partial length ZAK (M1 to L331 residues) expressed in bacterial expression system assessed as residual activity at 1 uM by Kinomescan method relative to control
[26] = biological target: Serine/threonine-protein kinase TAO1 (Homo sapiens) (UniProt Q7L7X3); assay: Inhibition of wild-type human partial length TAOK1 (M1 to A320 residues) expressed in mammalian expression system assessed as residual activity at 1 uM by Kinomescan method relative to control
Homo sapiens = species on record: Homo sapiens; assay: Inhibition of PKA (unknown origin) assessed as residual activity at 1 uM by Kinomescan method relative to control

Chain of Serine/threonine-protein kinase TAO1 (Homo sapiens) (Q7L7X3 whole entry, the tested form may be a part): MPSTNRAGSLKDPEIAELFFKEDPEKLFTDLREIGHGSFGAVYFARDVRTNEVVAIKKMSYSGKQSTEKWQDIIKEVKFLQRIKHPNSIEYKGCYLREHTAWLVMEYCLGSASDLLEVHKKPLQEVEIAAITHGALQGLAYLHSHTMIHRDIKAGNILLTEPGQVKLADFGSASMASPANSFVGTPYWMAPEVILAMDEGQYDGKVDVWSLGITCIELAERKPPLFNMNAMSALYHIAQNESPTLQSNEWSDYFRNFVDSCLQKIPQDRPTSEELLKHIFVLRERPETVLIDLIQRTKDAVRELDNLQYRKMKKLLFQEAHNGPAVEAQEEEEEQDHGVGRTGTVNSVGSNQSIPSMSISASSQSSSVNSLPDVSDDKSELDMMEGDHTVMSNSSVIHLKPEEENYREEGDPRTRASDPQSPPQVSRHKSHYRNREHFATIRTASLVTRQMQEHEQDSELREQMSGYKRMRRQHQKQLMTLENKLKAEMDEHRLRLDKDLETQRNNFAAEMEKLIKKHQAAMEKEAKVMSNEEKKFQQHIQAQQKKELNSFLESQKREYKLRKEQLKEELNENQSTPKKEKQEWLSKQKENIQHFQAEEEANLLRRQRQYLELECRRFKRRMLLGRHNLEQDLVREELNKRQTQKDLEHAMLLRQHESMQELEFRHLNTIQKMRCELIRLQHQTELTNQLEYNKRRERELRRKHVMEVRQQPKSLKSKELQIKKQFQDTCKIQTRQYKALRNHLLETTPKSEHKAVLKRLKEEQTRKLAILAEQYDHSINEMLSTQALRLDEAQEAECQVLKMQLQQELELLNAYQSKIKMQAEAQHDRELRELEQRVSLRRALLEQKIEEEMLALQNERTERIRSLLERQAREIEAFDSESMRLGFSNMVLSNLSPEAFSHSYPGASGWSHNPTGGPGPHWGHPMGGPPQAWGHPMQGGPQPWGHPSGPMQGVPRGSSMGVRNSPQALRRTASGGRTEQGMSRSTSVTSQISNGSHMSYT
Chain of SRSF protein kinase 3 (Homo sapiens) (Q9UPE1 whole entry, the tested form may be a part): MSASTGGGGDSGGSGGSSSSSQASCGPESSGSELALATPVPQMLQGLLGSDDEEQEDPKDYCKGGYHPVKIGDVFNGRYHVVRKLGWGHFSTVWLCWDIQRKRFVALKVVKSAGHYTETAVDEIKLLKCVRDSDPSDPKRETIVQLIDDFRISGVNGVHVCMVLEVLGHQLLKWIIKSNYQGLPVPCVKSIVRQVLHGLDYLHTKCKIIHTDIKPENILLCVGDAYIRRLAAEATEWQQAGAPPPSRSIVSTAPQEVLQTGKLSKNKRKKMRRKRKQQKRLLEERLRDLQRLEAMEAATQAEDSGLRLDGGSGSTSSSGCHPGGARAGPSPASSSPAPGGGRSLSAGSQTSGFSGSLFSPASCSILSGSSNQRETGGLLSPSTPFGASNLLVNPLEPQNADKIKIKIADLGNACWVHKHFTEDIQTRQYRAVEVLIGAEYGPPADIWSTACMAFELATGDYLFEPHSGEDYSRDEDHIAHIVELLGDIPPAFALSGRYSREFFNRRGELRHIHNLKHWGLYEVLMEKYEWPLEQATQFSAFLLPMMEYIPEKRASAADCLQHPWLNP
Chain of Serine/threonine-protein kinase Nek6 (Homo sapiens) (Q9HC98 whole entry, the tested form may be a part): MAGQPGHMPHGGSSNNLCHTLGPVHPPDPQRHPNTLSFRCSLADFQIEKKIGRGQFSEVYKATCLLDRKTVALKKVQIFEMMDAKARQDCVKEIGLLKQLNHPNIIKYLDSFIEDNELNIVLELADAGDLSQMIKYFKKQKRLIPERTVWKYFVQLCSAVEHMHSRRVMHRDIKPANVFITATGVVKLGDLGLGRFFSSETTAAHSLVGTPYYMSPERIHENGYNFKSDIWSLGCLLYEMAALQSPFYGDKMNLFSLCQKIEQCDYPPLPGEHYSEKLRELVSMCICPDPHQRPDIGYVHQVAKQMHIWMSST
Chain of 3-phosphoinositide-dependent protein kinase 1 (Homo sapiens) (O15530 whole entry, looked up, the tested form may be a part): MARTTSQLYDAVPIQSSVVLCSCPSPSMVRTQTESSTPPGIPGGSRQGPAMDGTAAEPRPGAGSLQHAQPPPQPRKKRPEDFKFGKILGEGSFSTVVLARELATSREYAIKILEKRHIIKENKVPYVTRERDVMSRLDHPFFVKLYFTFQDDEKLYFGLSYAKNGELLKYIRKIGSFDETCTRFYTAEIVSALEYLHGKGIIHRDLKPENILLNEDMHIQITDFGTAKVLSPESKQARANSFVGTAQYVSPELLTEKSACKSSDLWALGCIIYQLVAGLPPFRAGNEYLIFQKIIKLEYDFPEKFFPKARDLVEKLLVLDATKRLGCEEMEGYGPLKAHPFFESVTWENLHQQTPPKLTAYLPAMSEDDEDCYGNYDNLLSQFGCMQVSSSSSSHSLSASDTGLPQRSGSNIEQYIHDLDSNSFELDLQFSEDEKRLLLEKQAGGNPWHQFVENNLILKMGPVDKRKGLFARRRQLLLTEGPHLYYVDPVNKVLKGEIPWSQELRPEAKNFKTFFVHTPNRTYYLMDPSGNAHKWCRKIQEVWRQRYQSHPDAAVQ
Chain of Calcium/calmodulin-dependent protein kinase type II subunit beta (Homo sapiens) (Q13554 whole entry, the tested form may be a part): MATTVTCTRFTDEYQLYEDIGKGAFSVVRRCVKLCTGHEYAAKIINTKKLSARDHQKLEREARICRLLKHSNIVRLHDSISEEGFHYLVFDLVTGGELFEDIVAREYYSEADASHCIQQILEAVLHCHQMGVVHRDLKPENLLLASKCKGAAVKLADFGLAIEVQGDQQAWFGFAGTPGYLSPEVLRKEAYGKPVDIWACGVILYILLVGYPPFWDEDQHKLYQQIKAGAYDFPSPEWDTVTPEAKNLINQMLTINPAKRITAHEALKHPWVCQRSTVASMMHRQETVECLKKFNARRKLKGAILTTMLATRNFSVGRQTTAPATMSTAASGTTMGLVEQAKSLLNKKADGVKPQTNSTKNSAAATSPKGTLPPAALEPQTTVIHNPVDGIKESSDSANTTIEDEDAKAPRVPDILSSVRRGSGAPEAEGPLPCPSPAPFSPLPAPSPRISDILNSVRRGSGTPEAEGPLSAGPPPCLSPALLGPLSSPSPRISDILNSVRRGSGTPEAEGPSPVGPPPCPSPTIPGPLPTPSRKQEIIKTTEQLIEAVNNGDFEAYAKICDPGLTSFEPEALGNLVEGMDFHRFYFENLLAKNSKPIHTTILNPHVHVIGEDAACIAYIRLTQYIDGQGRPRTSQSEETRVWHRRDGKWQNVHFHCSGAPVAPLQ
Chain of Cytoplasmic tyrosine-protein kinase BMX (Homo sapiens) (P51813 whole entry, the tested form may be a part): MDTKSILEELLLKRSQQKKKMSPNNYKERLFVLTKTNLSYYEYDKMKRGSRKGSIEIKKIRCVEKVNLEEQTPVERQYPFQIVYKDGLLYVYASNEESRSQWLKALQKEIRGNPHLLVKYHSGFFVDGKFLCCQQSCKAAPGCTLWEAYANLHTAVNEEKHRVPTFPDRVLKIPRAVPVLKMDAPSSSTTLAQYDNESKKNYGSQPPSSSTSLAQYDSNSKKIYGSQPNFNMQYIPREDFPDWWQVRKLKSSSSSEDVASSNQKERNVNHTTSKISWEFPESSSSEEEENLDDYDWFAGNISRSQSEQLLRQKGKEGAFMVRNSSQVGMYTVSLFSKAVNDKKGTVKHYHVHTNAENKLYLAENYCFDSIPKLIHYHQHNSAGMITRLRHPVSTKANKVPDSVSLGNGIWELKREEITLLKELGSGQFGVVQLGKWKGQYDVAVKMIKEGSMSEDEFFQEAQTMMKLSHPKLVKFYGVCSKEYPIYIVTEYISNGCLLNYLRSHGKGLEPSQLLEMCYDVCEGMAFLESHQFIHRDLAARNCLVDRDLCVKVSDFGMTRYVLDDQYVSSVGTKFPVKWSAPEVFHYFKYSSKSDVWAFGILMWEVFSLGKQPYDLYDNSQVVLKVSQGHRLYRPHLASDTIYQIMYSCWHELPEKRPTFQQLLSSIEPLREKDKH
Chain of Inhibitor of nuclear factor kappa-B kinase subunit beta (Homo sapiens) (O14920 whole entry, the tested form may be a part): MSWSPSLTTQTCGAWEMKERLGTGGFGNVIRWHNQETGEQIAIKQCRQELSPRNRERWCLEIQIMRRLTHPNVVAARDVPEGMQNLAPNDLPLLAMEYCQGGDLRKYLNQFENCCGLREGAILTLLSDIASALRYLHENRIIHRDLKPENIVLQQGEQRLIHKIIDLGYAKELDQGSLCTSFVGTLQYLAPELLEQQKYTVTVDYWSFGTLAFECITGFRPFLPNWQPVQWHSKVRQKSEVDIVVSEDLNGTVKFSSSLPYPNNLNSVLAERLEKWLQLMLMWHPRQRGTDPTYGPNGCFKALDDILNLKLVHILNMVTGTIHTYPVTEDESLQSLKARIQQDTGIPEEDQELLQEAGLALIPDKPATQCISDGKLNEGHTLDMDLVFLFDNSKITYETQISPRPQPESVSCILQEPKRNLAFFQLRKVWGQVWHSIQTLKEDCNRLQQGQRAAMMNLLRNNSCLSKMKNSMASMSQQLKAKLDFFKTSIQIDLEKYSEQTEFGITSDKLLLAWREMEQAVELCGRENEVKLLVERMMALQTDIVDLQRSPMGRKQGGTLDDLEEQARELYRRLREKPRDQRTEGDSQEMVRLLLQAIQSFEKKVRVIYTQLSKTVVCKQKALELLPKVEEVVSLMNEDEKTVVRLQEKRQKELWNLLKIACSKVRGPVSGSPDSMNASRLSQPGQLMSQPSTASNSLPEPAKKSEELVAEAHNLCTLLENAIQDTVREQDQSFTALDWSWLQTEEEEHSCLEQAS
Chain of Casein kinase I isoform gamma-1 (Homo sapiens) (Q9HCP0 whole entry, looked up, canonical isoform): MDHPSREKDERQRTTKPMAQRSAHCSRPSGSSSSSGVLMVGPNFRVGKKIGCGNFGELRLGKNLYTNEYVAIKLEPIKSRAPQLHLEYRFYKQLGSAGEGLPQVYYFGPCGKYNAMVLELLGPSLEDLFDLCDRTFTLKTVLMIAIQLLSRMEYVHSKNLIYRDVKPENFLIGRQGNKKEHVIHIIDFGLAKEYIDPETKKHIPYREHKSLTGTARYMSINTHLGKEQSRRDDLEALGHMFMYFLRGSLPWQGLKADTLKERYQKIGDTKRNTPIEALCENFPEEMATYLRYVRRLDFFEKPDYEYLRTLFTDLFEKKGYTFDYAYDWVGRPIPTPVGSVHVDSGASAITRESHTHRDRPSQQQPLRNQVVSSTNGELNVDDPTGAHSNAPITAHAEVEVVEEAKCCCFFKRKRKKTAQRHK

`CCOc1nc(Nc2ccc(C(=O)N3CCOCC3)cc2OC)nc2[nH]ccc12` showed an Activity [1] of 99.8%, an Activity [2] of 92.5% and an Activity [3] of 101%. It also gave an Activity [4] of 86.5%, an Activity [5] of 46.9% and an Activity [6] of 95%. For the same compound, the Activity [7] was 93.1%, the Activity [8] was 101% and the Activity [9] was 97.7%. For the same compound, the Activity [10] was 78.1%, the Activity [11] was 90.1% and the Activity [12] was 111%. It also gave an Activity [13] of 95.9%, an Activity [14] of 92.6% and an Activity [15] of 84.5%. The Activity [16] was 96.8%, the Activity [17] was 95.5% and the Activity [18] was 98.4%. For the same compound, the Activity [19] was 91.7%, the Activity [20] was 92.6% and the Activity [21] was 95.2%. The Activity [22] was 116%, the Activity [23] was 100% and the Activity [24] was 97.4%. For the same compound, the Activity [25] was 97.2%, the Activity [26] was 89.9% and the Activity (Homo sapiens) was 103%.
